Laboratory results from patent publication US20180207249A1, “METHOD AND VACCINE COMPRISING COPOLYMER 1 FOR TREATMENT OF PSYCHIATRIC DISORDERS” (YEDA RESEARCH AND DEVELOPMENT CO. LTD., priority 2003, published 2018).

Legend:
[1] = test system: male C57B1/6J mice exposed to the odor of a predator; assay: Behavioral adaptation to psychological stress (predator odor; EPM and ASR cut-off behavioral criteria); type: in vivo, mouse; conditions: single 10-min exposure to odor of a predator, PBS/CFA control 40.8%, P<0.05
Experimental: (iii) Immunization. Each animal was injected with a total of 100 μg of Cop-1 emulsified in an equal volume of complete Freund's adjuvant (CPA) containing 5 mg/ml of Mycobacteria H37 RA (Difco). The emulsion, in a total volume of 0.1 mL, was injected into the flank 1 week before the mouse was first injected with a psychotomimetic drug. Control mice were injected with an equal volume of phosphate-buffered saline (PBS) emulsified in CFA.
(ix) Induction of psychological stress. Mice in the experimental groups were exposed for 10 minutes to thoroughly soiled eat litter (used by a cat for 2 days and sifted for faeces). Control (WT) mice were exposed for the same time to unused litter. […]
Behavior on the EPM was recorded using EthoVision programs (Noldus) that recorded the location of the mouse over the 5-minute test period. […]
Five behavioral parameters were assessed: (1) time spent in the open arms; (2) time spent in the closed arms; (3) number of entries into open arms; (4) number of entries into closed arms; (5) total number of entries into all arms. Mice were recorded as having entered an open or closed arm only when all four paws had passed over the dividing line between open and closed arms. […]
(xi) Acoustic startle response (ASR). […] The ASR and pre-pulse inhibition were measured using two ventilated startle chambers (SR-LAB system, San Diego Instruments, San Diego, Calif.). […]

[2] = test system: Cop-1-reactive T cells; assay: ELISA of BDNF secreted by Cop-1-reactive T cells; type: cell-based, Lewis rats; conditions: 48 h stimulation with antigen
Experimental: (iv) T-cell lines. Ten days after Cop-1 immunization, T-cell lines were generated from draining lymph node cells obtained from Lewis rats immunized with Cop-1 emulsified in CFA. The lymph nodes were surgically removed, dissociated, washed, and then activated with the antigen (10 μg/ml) in stimulation medium as previously reported (Kipnis et al., 2000). The T-cells lines were expanded by repeated stimulation and propagation.
(v) Enzyme-linked immunosorbent assay. T cell-reactive Cop-1 cells were grown for 1 week in a propagation medium, then washed with PBS and re-suspended in stimulation medium. The cultured T cells (0.5×10^6 cells/mL) were then incubated, in the presence of irradiated thymocytes (10^7 cells/mL), with concanavalin A (Con A; 1.25 μg/mL), myelin basic protein (MRP; 10 μg/ml), Cop-1 (10 μg/mL), ovalbumin (OVA; 10 μg/mL), or no antigen, in stimulation medium. After 48 h the cells were centrifaged and their supernatants were collected and sampled. Concentrations of brain-derived neurotrophic factor (BDNF) in the samples were determined with a sensitive sandwich ELISA. In brief 96-well flat-bottomed plates were coated with a chicken anti-human BDNF antibody (Promega, Madison, Wis.) in 0.025 M NaHCO3 and 0.025 M Na2CO3 (pH 8.2). Recombinant human BDNF (used as a standard; Research Diagnostics, Flanders, N.J.) was used in serial dilutions in blocking solution containing 3% bovine serum albumin, 0.05% polyoxyethylene-sorbitan monolaurate (Tween-20), and 1% fetal calf serum in PBS (pH 8.2). Bound BDNF was detected by incubating the plates with a mouse anti-human BDNF antibody (Research Diagnostics) and then with peroxidase-conjugated goat anti-mouse IgG (Jackson ImmunoResearch, West Grove, Pa.) in blocking solution. The plates were developed using a 3,3′,5,5′-tetramethylbenzidine liquid substrate system (Sigma-Aldrich). The reaction was stopped by adding 1M H3PO4, and the optical density was determined at 450 nm. Results for each experiment were calculated as the amount of secreted BDNF per 1 mL of sample, after subtraction of background levels of the irradiated thymocytes incubated with the stimulation medium.
Cop-1-reactive T cells were cultured for 48 h with Cop-1, MBP, ovalbumin, or concanavalin A in stimulation medium. T cell supernatants were collected and subjected to sandwich ELISA. […] Values are mean values (pg/ml) +/− SE (from three independent experiments) of the amounts of BDNF secreted by Cop-1-specific T cells in response to stimulation by various antigens.

[3] = test system: rats exposed to psychotomimetic drugs; assay: Vaccination after exposure to psychotomimetic drugs; type: in vivo; conditions: vaccination after drug exposure, not shown

Substance: Copolymer 1 [Cop-1]
- Prevalence of maladaptation (behavioral changes) after predator odor [1]: 14.8%
- Secretion of BDNF by Cop-1-reactive T cells compared with unstimulated T cells [2]: significantly increased
- BDNF secreted by Cop-1-reactive T cells (mean) ([2]; mean of three independent experiments, no antigen 400): 1220 pg/mL
- Effect of vaccination given after psychotomimetic drugs [3]: beneficial
